Key:
[1] = Cleavage experiments in FaSSIF medium simulating the intestinal tract; format: in vitro ADME; conditions: in the presence or absence of pancreatin
Description: (§1) By means of cleavage experiments it is shown that reaction products prepared according to the invention or mixtures thereof can be cleaved in the human gastrointestinal tract. The starting mixture used is, on the one hand, a 3-acetoxybutyric acid ethyl ester obtained and purified by the process according to the invention as described hereinabove and, on the other hand, in each case the 3-BHB ethyl esters capped in the 3-position with the carboxylic acid anhydride (heptanoic acid anhydride, lauric acid anhydride or oleic acid anhydride) obtained and purified by the process according to the invention as described hereinabove.
(§2) For the cleavage experiments under near-body conditions two media are investigated: • FaSSGF, which simulates the stomach • FaSSIF, which simulates the intestinal tract
(§3) Both media are from the company Biorelevant®, Ltd. in Great Britain. In addition, in some experiments porcine pancreas is added (Panzytrat® 40,000, Fa. Allergan).
(§4) Under FaSSIF conditions, a lower conversion using Panzytrat® takes place.

[2] = Cleavage experiments in FaSSGF medium simulating the stomach; format: in vitro ADME; conditions: in the presence or absence of pancreatin
Description: as §1, §2, §3, §4

[3] = even if several grams are taken; patients; cited from earlier work

SMILES	cleavage in intestinal medium [1]	cleavage in gastric medium [2]	duration of ketosis [3]
CCOC(=O)CC(C)OC(C)=O (stereo not drawn) [3-acetoxybutyric acid ethyl ester]	cleavage to 3-BHB in free form	cleavage to 3-BHB in free form	
CC(O)CC(=O)O (stereo not drawn) [3-hydroxybutyric acid]			three to four

— patent publication US11492321B2, “Method for producing capped 3-hydroxycarboxylic acids and their salts and esters” (IOI Oleo GmbH, priority 2019, dated 2022)
